± gives the expanded uncertainty stated by the source.
Assays:
[1] = 313.15 K; 101 kPa; Liquid; Sing-around technique in a fixed-path interferometer
[2] = mn = molality of the nth substance listed, in mol/kg; conditions: 313.15 K; 101 kPa; Liquid; fixed-path interferometer; m2 = 0

speed of sound [1] | speed of sound [2] | SMILES
1528.9 ± 1.1 m/s |  | O [water]
 | 1528.9 ± 1.1 m/s | O [water] + O=C(O)CC(O)(CC(=O)O)C(=O)O

Reference: the NIST ThermoML archive (doi:10.1016/j.jct.2013.04.017)
